Data as given in US20070275936A1, “Formulations and Treatment Methods” (priority 1998, published 2007).

What was measured:
[1] = tested on: CD4+ memory T cell 1 (MT1) and memory T cell 2 (MT2) cells; test: MT1:MT2 memory T cell ratio in patients after 5 day i.m. BrEA; format: in vivo, human
Description: In a separate clinical trial using 100 mg of BrEA delivered to patients once per day for 5 consecutive days by intramuscular injection, several patients were evaluated for changes in the ratio of CD4^+ memory T cell 1 cells (intracellular IFNγ^+ CD45RA^− CD62L^− CD11a^bright) or MT1 cells to memory T cell 2 cells (intracellular IL-4^+ CD45RA^− CD62L^+ CD11a^dim) or MT2 cells. MT1 cells mediate or facilitate Th1 immune responses and MT2 cells mediate or facilitate Th2 immune responses. An increase in the MT1:MT2 ratio indicates an enhanced Th1 immune response or immune status. See, e.g., D. K. Mitra et al., International Immunology 1999 11:1801-1810. […] The maximum observed increase was about 700% in one patient at 10 days after the last dose of BrEA was administered. The increase usually persisted for more than 10 days after the last dose of BrEA was administered.

[2] = tested on: Circulating Hematologic Elements; test: Human HIV clinical protocol: hematology; format: in vivo
Description: Otherwise untreated patients with CD4 counts of ≧200/μL and HIV-1 viral RNA between 5,000 and 1,000,000 copies/mL (branched-DNA, version 3.0, Bayer, Tarrytown, N.Y.) provided informed consent and were enrolled into a Phase I/II dose-escalation study of the safety and efficacy of intramuscular injections of BrEA. The protocol was conducted in South Africa. In the first cohort, four patients received an initial injection of 1 mL (50 mg), followed by a safety and pharmocokinetic study for seven days, and then received five daily injections of 1 mL (50 mg). The second cohort of 8 patients was randomized in a 1:2 ratio to receive either 50 mg (1 mL) or 100 mg (2 mL) on the same schedule. Patients were allowed at the discretion of the investigators to receive up to three additional courses each, repeated after 28 days of observation. The protocol was amended to introduce an improved formulation, and to extend the initial pharmacokinetic and safety period to 14 days, the observation period following the five daily doses to 35 days, and to allow up to 7 treatment courses. A third cohort of 24 patients was randomized in a 1:2:4 ratio to receive either 50 mg (0.5 mL), 100 mg (1 mL), or 200 mg (2 mL) of BrEA. The patients were all male, since initial safety studies are not permitted in females in South Africa. Within the group of 39 patients randomized, the ethnic demographic included was 18 Caucasian, 17 African, and 4 other. The average age was 34 (range 20-63), the average initial CD4/μL was 434 (range 176-1210), and the average viral load was 13,772 copies/mL (range 3,020-158,489). Patients underwent physical examinations and provided samples for chemistry, hematology, virology and immunology testing approximately every two weeks.
The CD4^+ cell frequency was determined using the FACSCount test. The absolute frequency of a CD8^+ cell subset was calculated in a similar fashion. The absolute white blood cell (WBC) count was determined using an automated cell counter (Advia 120, Bayer, Tarrytown, N.Y.). The nucleated cell region was defined using a forward versus orthogonal scatter plot. The absolute frequency per μL of CD3^− Natural Killer or Dendritic Cell subsets (F) was estimated by the equation: F=(proportion of nucleated cells)×(absolute WBC count per μL).
Statistical analysis of changes in surface phenotypes, hematological, and viral parameters were performed by calculating the area under the curve (AUC) of the percentage difference from baselines (phenotype), percentage difference from the mean of screen and baseline values (hematology), or log10 change from the mean of screen and baseline values (plasma viral RNA) for individual patients. AUC were calculated using the actual number of days between analysis visits for each patient. Because patients were on study for varying periods of time, this value was normalized to the time-averaged AUC by dividing by the number of days of observation. The Student's t-test was then used to analyze the difference from zero for the AUCs from all patients with data available for each parameter. A significant increase in the AUC for the entire 5-month period was interpreted as a nonrandom change in the given parameter.
For these reasons, the time-averaged AUC values for the 5-month period underestimate the magnitude of the individual responses. Maximal individual patient responses were calculated as the mean of the maximal percentage changes from baselines for individual patients at any analysis visit after dosing.
To investigate the kinetics of the responses for the entire population related to the time after dosing, the maximum analysis visit responses were calculated as the average of the maxima of the mean percentage changes from baselines for each analysis visit. Due to the altered BrEA administration interval for cohort 3, the analysis visits were aligned relative to the last dosing visit.

Plasmodium berghei = test: Lewis rat in vivo parasitemia study; details: Lewis rats

C[C@]12CC[C@H](O)C[C@@H]1CC[C@@H]1[C@@H]2CC[C@]2(C)C(=O)[C@H](Br)C[C@@H]12 [BrEA, 16α-bromo-3β-hydroxy-5α-androstane-17-one]
tested patients showing a transient increase in the MT1:MT2 ratio ([1]; 100 mg i.m. once per day for 5 consecutive days): 7/7
maximum observed increase in the MT1:MT2 ratio ([1]; one patient, 10 days after the last dose): about 700%
Eosinophils: Maximum Analysis Visit Responses Mean ([2]; analysis visit day 22): 129% (22)
WBC: Maximum Analysis Visit Responses Mean ([2]; analysis visit day 81): 23% (81)
Basophils: Maximum Analysis Visit Responses Mean ([2]; analysis visit day 126): 113% (126)
Eosinophils: Maximum Individual Patient Responses Mean (range) ([2]; change from baseline, n=33): 110% (−37 to 656%)
Basophils: Maximum Individual Patient Responses Mean (range) ([2]; change from baseline, n=37): 182% (−20 to 1,100%)
Monocytes: Maximum Individual Patient Responses Mean (range) ([2]; change from baseline, n=37): 60% (−14 to 189%)
Neutrophils: Maximum Individual Patient Responses Mean (range) ([2]; change from baseline, n=37): 67% (−25 to 297%)
Platelets: Maximum Individual Patient Responses Mean (range) ([2]; change from baseline, n=37): 31% (0 to 122%)
WBC: Maximum Individual Patient Responses Mean (range) ([2]; change from baseline, n=37): 36% (−1 to 159%)
WBC: Time-averaged AUC Increase Mean ± SEM ([2]; i.m. BrEA, HIV patients, n=37, p=0.132): 4.4 ± 3%
Eosinophils: Time-averaged AUC Increase Mean ± SEM ([2]; n=33, p=0.086): 20 ± 11%
Platelets: Time-averaged AUC Increase Mean ± SEM ([2]; n=37, p<0.001): 7 ± 2%
Basophils: Time-averaged AUC Increase Mean ± SEM ([2]; n=37, p=0.001): 42 ± 12%
Neutrophils: Time-averaged AUC Increase Mean ± SEM ([2]; n=37, p=0.009): 11 ± 4%
Monocytes: Time-averaged AUC Increase Mean ± SEM ([2]; n=37, p=0.029): 10 ± 5%
% RBC parasitemia (Plasmodium berghei; Day 4, high dose 60 mg/kg i.v. days 0-3, saline control 16%): 7%
% RBC parasitemia (Plasmodium berghei; Day 4, low dose 30 mg/kg i.v. days 0-3, saline control 16%): 9%
% RBC parasitemia (Plasmodium berghei; Day 11, high dose 60 mg/kg i.v. days 0-3, saline control 36%): 11%
% RBC parasitemia (Plasmodium berghei; Day 11, low dose 30 mg/kg i.v. days 0-3, saline control 36%): 12%
